From ChEMBL document CHEMBL1201862, “PubChem BioAssay data set” (2004)
Calls of active or inactive are those of the source.

Assays:
[1] = biological target: Lysine-specific demethylase 4C (Homo sapiens, UniProt Q9H3R0); assay: inhibition of JMJD2C H3K9me3 demethylation – biochemical, DELFIA europium, cherry-picked samples, dose response (AID 488835); format: functional
[2] = biological target: Albumin (Bos taurus, UniProt P02769); assay: Counterscreen for inhibitors of T-cell receptor (TCR)-CD3 interaction: Fluorescence-based biochemical high throughput dose response assay to identify inhibitors of T-cell receptor (TCR)-CD3 interaction using a TAMRA-labeled BSA probe.; format: functional
[3] = test system: HEK293; assay: cells; conditions: Homo sapiens
[4] = test system: HEK293; assay: cells; conditions: Homo sapiens; remark: listed apart in the source
[5] = biological target: Heat shock protein HSP 90-alpha (Homo sapiens, UniProt P07900); format: functional, organism-based
[6] = biological target: UDP-galactopyranose mutase (Mycobacterium tuberculosis, UniProt P9WIQ1); assay: Inhibitors of Mycobacterium tuberculosis UDP-galactopyranose mutase (UGM) enzyme Measured in Biochemical System Using Plate Reader - 2105-02_Inhibitor_Dose_CherryPick_Activity. [Related pubchem assays (depositor defined):AID504439]
[7] = test system: A-375; assay: MITF: Counter assay: A375 proliferation Measured in Cell-Based System Using Plate Reader - 2084-03_Inhibitor_Dose_DryPowder_Activity. [Related pubchem assays (depositor defined):AID488944]; format: functional; conditions: Homo sapiens
[8] = test system: A-375; assay: proliferation inhibition in MITF-low A375 cells – cell-based, cherry-pick samples, set 2, counter-screen for MITF modulator project, dose response (AID 540335); format: functional; conditions: Homo sapiens
[9] = biological target: Voltage-dependent T-type calcium channel subunit alpha-1H (Homo sapiens, UniProt O95180); format: functional;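 also: channel activity triggered by adding a high calcium stimulation buffer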
[10] = toxicity toward cultured mammalian cells – cell-based, plate reader, cherry-pick samples, cytotoxicity control, dose response (AID 504397); format: functional
[11] = biological target: T1, CAAX prenyl protease 2 (Saccharomyces cerevisiae S288c, UniProt Q03530); format: biochemical
T1 sequence (Q03530 whole entry): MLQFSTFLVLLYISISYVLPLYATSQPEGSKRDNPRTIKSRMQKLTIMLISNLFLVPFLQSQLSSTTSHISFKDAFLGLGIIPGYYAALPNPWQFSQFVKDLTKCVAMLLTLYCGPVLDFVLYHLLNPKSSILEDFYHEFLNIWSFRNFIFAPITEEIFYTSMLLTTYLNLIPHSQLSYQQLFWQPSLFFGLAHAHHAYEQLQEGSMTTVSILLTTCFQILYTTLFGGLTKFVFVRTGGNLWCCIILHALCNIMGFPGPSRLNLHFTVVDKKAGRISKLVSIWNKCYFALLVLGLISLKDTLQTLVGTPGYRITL

[12] = biological target: T2, CAAX prenyl protease 2 (Homo sapiens, UniProt Q9Y256); assay: inhibition of Ras-converting CAAX protease Rce1 – biochemical, yeast membranes, quenched-peptide fluorescence, cherry-pick, dose response (AID 588849)
T2 sequence (Q9Y256 whole entry): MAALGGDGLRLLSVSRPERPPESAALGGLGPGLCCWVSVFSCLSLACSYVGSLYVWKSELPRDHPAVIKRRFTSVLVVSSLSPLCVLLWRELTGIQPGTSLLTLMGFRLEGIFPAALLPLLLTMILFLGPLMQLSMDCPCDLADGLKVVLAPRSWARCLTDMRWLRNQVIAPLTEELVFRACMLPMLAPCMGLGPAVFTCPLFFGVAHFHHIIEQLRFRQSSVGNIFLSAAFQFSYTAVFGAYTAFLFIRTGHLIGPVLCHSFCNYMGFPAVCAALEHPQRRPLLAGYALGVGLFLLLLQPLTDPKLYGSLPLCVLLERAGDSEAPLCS

[13] = biological target: Peroxisome proliferator-activated receptor gamma/Nuclear receptor coactivator 3 (Homo sapiens, UniProt P37231); assay: (§1) TR-FRET dose response biochemical High Throughput Screening assay for agonists of the steroid receptor coactivator 3 (SRC-3) recruitment by the peroxisome proliferator-activated receptor gamma (PPAR gamma): non-selective agonists. [Related pubchem assays: 1301 (Confirmation screen.), 1048 (Primary screen.)]; format: functional
[14] = biological target: Peroxisome proliferator-activated receptor gamma/Nuclear receptor coactivator 1 (Homo sapiens, UniProt P37231); assay: as §1, with “1 (SRC-1)” for “3 (SRC-3)”, “assays (depositor defined):AID1300, AID1808, AID504735, AID631]” for “assays: 1301 (Confirmation screen.), 1048 (Primary screen.)]”; format: protein assay
[15] = biological target: Mitogen-activated protein kinase 10 (Homo sapiens, UniProt P53779); assay: Dose response biochemical screening assay for inhibitors of c-Jun N-Terminal Kinase 3 (JNK3). [Related pubchem assays: 746 ]
[16] = biological target: Peroxisome proliferator-activated receptor gamma/Nuclear receptor coactivator 2 (Homo sapiens, UniProt P37231); assay: TR-FRET dose response biochemical High Throughput Screening assay for agonists of the steroid receptor coactivator 2 (SRC-2) recruitment by the peroxisome proliferator-activated receptor gamma (PPAR gamma): non-selective agonists. [Related pubchem assays: 1297, 1032 ]; format: functional
Sequence of Peroxisome proliferator-activated receptor gamma/Nuclear receptor coactivator 2 (P37231 whole entry): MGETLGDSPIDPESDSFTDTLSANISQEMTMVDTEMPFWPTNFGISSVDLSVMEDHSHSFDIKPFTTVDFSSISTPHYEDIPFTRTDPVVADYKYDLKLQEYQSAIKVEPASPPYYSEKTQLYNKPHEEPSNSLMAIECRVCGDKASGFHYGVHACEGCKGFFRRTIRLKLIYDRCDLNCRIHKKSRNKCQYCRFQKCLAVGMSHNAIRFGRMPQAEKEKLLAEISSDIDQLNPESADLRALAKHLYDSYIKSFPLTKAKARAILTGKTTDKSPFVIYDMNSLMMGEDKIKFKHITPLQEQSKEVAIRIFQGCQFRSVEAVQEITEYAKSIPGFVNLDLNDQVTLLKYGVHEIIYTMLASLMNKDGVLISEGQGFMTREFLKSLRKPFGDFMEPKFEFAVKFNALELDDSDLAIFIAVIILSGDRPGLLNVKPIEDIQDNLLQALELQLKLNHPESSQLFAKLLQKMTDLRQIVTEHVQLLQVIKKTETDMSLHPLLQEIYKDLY
Sequence of Peroxisome proliferator-activated receptor gamma/Nuclear receptor coactivator 2 (Q15596 whole entry, further chain): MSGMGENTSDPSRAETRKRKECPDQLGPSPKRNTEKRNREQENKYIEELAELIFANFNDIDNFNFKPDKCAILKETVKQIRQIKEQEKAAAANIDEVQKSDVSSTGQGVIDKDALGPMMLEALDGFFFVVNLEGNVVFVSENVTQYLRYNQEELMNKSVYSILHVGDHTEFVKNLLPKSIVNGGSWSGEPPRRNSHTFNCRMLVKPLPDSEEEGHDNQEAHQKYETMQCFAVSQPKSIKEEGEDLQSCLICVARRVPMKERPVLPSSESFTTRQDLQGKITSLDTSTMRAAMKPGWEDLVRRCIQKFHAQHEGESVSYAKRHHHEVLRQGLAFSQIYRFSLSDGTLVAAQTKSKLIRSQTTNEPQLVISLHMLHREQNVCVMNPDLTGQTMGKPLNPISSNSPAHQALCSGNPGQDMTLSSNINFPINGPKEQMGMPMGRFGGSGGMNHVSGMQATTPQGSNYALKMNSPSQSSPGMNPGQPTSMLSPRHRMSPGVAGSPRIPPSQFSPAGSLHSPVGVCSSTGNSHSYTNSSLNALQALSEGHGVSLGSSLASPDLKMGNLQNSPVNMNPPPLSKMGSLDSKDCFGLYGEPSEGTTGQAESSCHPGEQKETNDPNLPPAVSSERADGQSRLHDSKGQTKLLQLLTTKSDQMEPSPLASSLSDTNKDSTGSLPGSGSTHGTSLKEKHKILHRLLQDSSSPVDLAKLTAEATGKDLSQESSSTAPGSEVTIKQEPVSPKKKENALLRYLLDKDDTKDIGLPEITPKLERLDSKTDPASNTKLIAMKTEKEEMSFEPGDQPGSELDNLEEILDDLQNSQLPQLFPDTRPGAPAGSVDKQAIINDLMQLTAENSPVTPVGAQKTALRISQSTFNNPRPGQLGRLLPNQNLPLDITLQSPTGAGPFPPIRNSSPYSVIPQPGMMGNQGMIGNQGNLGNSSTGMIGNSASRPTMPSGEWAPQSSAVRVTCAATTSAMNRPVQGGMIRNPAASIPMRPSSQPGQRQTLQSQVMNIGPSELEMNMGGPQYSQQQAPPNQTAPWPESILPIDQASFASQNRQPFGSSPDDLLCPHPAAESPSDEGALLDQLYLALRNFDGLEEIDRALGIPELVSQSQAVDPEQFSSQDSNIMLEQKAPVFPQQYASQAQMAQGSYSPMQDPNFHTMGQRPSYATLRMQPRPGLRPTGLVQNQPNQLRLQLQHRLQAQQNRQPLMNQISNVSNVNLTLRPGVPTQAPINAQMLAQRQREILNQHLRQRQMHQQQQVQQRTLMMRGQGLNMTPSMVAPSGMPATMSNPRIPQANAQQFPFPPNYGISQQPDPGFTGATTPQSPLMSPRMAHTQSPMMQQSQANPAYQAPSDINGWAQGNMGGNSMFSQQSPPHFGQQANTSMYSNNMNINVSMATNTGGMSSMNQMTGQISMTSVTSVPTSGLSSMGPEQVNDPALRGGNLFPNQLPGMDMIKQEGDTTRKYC

Sequence of UDP-galactopyranose mutase (P9WIQ1 whole entry): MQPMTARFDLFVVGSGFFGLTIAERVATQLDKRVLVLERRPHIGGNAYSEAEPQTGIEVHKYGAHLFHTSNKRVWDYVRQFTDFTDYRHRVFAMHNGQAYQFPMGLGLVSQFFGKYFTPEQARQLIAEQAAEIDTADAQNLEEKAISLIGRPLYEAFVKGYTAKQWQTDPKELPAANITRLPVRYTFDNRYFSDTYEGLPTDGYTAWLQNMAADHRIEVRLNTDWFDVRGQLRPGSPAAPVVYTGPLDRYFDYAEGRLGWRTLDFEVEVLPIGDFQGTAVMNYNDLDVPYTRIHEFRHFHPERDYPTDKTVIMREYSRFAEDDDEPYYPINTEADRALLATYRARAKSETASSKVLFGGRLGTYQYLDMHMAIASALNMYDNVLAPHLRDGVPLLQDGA
Sequence of Mitogen-activated protein kinase 10 (P53779 whole entry): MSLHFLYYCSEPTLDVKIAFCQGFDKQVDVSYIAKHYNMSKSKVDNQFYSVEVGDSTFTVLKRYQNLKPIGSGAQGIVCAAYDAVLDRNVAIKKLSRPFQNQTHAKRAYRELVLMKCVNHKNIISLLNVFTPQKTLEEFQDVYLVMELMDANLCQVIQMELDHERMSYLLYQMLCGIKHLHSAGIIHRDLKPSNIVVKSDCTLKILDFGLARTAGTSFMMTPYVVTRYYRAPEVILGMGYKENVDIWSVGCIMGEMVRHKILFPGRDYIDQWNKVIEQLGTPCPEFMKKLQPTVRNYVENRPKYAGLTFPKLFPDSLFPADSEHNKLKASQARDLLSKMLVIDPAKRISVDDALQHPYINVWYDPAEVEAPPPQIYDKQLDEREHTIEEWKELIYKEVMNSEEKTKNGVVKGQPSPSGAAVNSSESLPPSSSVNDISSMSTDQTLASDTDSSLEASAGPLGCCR
Sequence of Peroxisome proliferator-activated receptor gamma/Nuclear receptor coactivator 1 (P37231 whole entry): as the sequence (P37231 whole entry) above
Sequence of Peroxisome proliferator-activated receptor gamma/Nuclear receptor coactivator 1 (Q15788 whole entry, further chain): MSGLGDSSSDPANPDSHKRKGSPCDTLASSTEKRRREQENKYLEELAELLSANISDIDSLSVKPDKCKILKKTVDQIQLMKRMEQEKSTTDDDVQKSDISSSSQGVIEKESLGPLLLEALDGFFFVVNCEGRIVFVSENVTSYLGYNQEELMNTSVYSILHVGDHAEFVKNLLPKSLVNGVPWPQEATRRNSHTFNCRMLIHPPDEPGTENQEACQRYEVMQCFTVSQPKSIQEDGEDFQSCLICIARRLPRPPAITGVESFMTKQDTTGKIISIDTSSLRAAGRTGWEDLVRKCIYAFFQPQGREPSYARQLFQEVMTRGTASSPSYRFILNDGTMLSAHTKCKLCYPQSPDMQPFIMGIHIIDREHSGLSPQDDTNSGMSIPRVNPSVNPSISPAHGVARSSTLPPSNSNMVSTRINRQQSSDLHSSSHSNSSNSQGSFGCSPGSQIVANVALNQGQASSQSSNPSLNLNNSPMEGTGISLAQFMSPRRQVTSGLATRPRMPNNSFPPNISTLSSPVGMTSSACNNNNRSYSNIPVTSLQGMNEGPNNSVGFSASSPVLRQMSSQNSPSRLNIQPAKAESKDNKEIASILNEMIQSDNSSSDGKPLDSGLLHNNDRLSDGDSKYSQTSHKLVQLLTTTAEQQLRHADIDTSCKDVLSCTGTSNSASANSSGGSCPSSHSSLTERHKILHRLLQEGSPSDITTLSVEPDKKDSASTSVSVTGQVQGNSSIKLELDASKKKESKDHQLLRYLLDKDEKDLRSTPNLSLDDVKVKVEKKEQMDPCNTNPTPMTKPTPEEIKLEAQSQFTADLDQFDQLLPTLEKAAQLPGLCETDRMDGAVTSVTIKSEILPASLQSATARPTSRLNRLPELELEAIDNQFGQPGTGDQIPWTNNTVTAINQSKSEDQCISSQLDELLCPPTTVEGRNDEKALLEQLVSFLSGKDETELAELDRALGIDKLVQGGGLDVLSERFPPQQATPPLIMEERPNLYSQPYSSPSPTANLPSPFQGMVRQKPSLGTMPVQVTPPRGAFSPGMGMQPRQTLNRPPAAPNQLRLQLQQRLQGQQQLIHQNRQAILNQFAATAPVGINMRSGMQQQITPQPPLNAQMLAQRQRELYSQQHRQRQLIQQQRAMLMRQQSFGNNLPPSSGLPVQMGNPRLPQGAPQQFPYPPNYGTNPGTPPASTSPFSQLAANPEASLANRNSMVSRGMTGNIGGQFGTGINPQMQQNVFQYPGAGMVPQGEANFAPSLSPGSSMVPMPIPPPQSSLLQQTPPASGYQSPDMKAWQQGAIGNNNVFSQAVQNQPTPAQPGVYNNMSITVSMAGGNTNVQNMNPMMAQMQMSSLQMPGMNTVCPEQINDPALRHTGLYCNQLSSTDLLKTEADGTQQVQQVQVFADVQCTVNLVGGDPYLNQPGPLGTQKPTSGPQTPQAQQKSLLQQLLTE

O=C(NNC(=O)C1CCN(S(=O)(=O)c2ccccc2)CC1)c1ccccc1O
AC50 [1]: 6.67 µM (active) | IC50 [2]: > 94.1 µM (inactive)

O=C(C=Cc1ccccn1)c1ccccc1O
EC50 [3]: > 59.6 µM (inactive) | EC50 [4]: > 59.6 µM (inactive) | AC50 [5]: 2.37 µM (active)

Cc1cc(C(C)(C)C)cc(S(=O)(=O)Nc2ccc(C(=O)O)cc2)c1C
AC50 [6]: 0.201 µM (active)

Cc1ccc(SCc2cn3cc(Cl)ccc3n2)cc1
AC50 [7]: > 35 µM (active) | AC50 [8]: > 35 µM (active)

O=C(Nc1ccc(S(=O)(=O)Nc2ccccc2)cc1)C1COc2ccccc2O1 (stereo unspecified)
EC50 [9]: 3.37 µM (active) | AC50 [10]: 120 µM (active) | AC50 [11]: 4.26 µM (active) | AC50 [12]: 65.5 µM (active)

CCOC(=O)CCC(NC(=O)c1ccc(NCN2C(=O)c3ccccc3C2=O)cc1)C(=O)OCC (stereo unspecified)
EC50 [13]: > 79.4 µM (not active) | EC50 [14]: > 79.4 µM (inactive) | IC50 [15]: 13.1 µM (not active) | EC50 [16]: > 79.4 µM (not active)
